# Measurements from patent US10253039B2, “Inhibitors of bacterial DNA gyrase with efficacy against gram-negative bacteria” (priority 2014, dated 2019).
# Test system: E. coli BW25113
# Experiment: MIC, microdilution in 96-well plates
# Format: cell-based
# Settings: Escherichia coli, BW25113, B: E. coli BW25113; read-out: MIC
# Outline: (§1)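 Growth inhibition was scored after overnight culture (16-18 hours, 37° C., shaking) by looking for turbidity; the first clear well in a triplicate 2-fold compound series defined the MIC. Strains were inoculated at 1:10000 into LB.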
row,SMILES,MIC [µg/mL]
1,O=S(=O)(N[C@@H]1CCN(Cc2ccc(SC(F)(F)F)cc2)C1)c1cccc(OC(F)(F)F)c1 [Compound 55],> 8
2,N#Cc1cc(S(=O)(=O)N[C@@H]2CCN(Cc3ccc(-c4ccccc4)cc3)C2)ccc1F [Compound 19],> 8
3,N#Cc1cccc(S(=O)(=O)N[C@@H]2CCN(Cc3ccc(-c4ccccn4)cc3)C2)c1 [Compound 46],> 8
4,O=S(=O)(N[C@@H]1CCN(Cc2ccc(-c3ccccn3)cc2)C1)c1cccc(C(F)(F)F)c1 [Compound 43],> 8
5,CC(=O)c1cccc(S(=O)(=O)N[C@@H]2CCN(Cc3ccc(OC(C)C)cc3)C2)c1 [Compound 49],> 8

# Test system: Edwardsiella tarda
# Experiment: MIC, microdilution in 96-well plates
# Format: cell-based
# Settings: D: Edwardsiella tarda
# Outline: as §1
row,SMILES,MIC [µg/mL]
1,O=S(=O)(N[C@@H]1CCN(Cc2ccc(SC(F)(F)F)cc2)C1)c1cccc(OC(F)(F)F)c1 [Compound 55],> 8
2,N#Cc1cc(S(=O)(=O)N[C@@H]2CCN(Cc3ccc(-c4ccccc4)cc3)C2)ccc1F [Compound 19],> 8
3,N#Cc1cccc(S(=O)(=O)N[C@@H]2CCN(Cc3ccc(-c4ccccn4)cc3)C2)c1 [Compound 46],> 8
4,O=S(=O)(N[C@@H]1CCN(Cc2ccc(-c3ccccn3)cc2)C1)c1cccc(C(F)(F)F)c1 [Compound 43],> 8
5,CC(=O)c1cccc(S(=O)(=O)N[C@@H]2CCN(Cc3ccc(OC(C)C)cc3)C2)c1 [Compound 49],> 8

# Test system: Klebsiella pneumoniae subsp. pneumoniae
# Experiment: MIC, 20-strain panel
# Format: cell-based
# Settings: E: Klebsiella pneumoniae subsp. pneumoniae
# Outline: as §1
row,SMILES,MIC [µg/mL]
1,O=S(=O)(N[C@@H]1CCN(Cc2ccc(SC(F)(F)F)cc2)C1)c1cccc(OC(F)(F)F)c1 [Compound 55],> 8
2,N#Cc1cc(S(=O)(=O)N[C@@H]2CCN(Cc3ccc(-c4ccccc4)cc3)C2)ccc1F [Compound 19],> 8
3,N#Cc1cccc(S(=O)(=O)N[C@@H]2CCN(Cc3ccc(-c4ccccn4)cc3)C2)c1 [Compound 46],> 8
4,O=S(=O)(N[C@@H]1CCN(Cc2ccc(-c3ccccn3)cc2)C1)c1cccc(C(F)(F)F)c1 [Compound 43],> 8
5,CC(=O)c1cccc(S(=O)(=O)N[C@@H]2CCN(Cc3ccc(OC(C)C)cc3)C2)c1 [Compound 49],> 8

# Test system: Salmonella enterica subsp. enterica typhimurium
# Experiment: MIC, 20-strain panel
# Format: cell-based
# Settings: F: Salmonella enterica subsp. enterica Typhimurium
# Outline: as §1
row,SMILES,MIC [µg/mL]
1,O=S(=O)(N[C@@H]1CCN(Cc2ccc(SC(F)(F)F)cc2)C1)c1cccc(OC(F)(F)F)c1 [Compound 55],> 8
2,N#Cc1cc(S(=O)(=O)N[C@@H]2CCN(Cc3ccc(-c4ccccc4)cc3)C2)ccc1F [Compound 19],4
3,N#Cc1cccc(S(=O)(=O)N[C@@H]2CCN(Cc3ccc(-c4ccccn4)cc3)C2)c1 [Compound 46],8
4,O=S(=O)(N[C@@H]1CCN(Cc2ccc(-c3ccccn3)cc2)C1)c1cccc(C(F)(F)F)c1 [Compound 43],> 8
5,CC(=O)c1cccc(S(=O)(=O)N[C@@H]2CCN(Cc3ccc(OC(C)C)cc3)C2)c1 [Compound 49],> 8

# Test system: Staphylococcus epidermidis
# Experiment: MIC, 20-strain panel
# Format: cell-based
# Settings: not given
# Outline: as §1
row,SMILES,MIC [µg/mL]
1,O=S(=O)(N[C@@H]1CCN(Cc2ccc(SC(F)(F)F)cc2)C1)c1cccc(OC(F)(F)F)c1 [Compound 55],> 8
2,N#Cc1cc(S(=O)(=O)N[C@@H]2CCN(Cc3ccc(-c4ccccc4)cc3)C2)ccc1F [Compound 19],> 8
3,N#Cc1cccc(S(=O)(=O)N[C@@H]2CCN(Cc3ccc(-c4ccccn4)cc3)C2)c1 [Compound 46],> 8
4,O=S(=O)(N[C@@H]1CCN(Cc2ccc(-c3ccccn3)cc2)C1)c1cccc(C(F)(F)F)c1 [Compound 43],> 8
5,CC(=O)c1cccc(S(=O)(=O)N[C@@H]2CCN(Cc3ccc(OC(C)C)cc3)C2)c1 [Compound 49],> 8

# Test system: Streptococcus pyogenes
# Experiment: MIC, 20-strain panel
# Format: cell-based
# Settings: not given
# Outline: as §1
row,SMILES,MIC [µg/mL]
1,O=S(=O)(N[C@@H]1CCN(Cc2ccc(SC(F)(F)F)cc2)C1)c1cccc(OC(F)(F)F)c1 [Compound 55],> 8
2,N#Cc1cc(S(=O)(=O)N[C@@H]2CCN(Cc3ccc(-c4ccccc4)cc3)C2)ccc1F [Compound 19],> 8
3,N#Cc1cccc(S(=O)(=O)N[C@@H]2CCN(Cc3ccc(-c4ccccn4)cc3)C2)c1 [Compound 46],> 8
4,O=S(=O)(N[C@@H]1CCN(Cc2ccc(-c3ccccn3)cc2)C1)c1cccc(C(F)(F)F)c1 [Compound 43],> 8
5,CC(=O)c1cccc(S(=O)(=O)N[C@@H]2CCN(Cc3ccc(OC(C)C)cc3)C2)c1 [Compound 49],> 8

# Test system: E. coli JW5503 (deltolC)
# Experiment: MIC, 20-strain panel
# Format: cell-based
# Settings: Escherichia coli, C: E. coli JW5503 (deltolC)
# Outline: as §1
row,SMILES,MIC [µg/mL]
1,O=S(=O)(N[C@@H]1CCN(Cc2ccc(SC(F)(F)F)cc2)C1)c1cccc(OC(F)(F)F)c1 [Compound 55],8
2,N#Cc1cc(S(=O)(=O)N[C@@H]2CCN(Cc3ccc(-c4ccccc4)cc3)C2)ccc1F [Compound 19],0.25
3,N#Cc1cccc(S(=O)(=O)N[C@@H]2CCN(Cc3ccc(-c4ccccn4)cc3)C2)c1 [Compound 46],1
4,O=S(=O)(N[C@@H]1CCN(Cc2ccc(-c3ccccn3)cc2)C1)c1cccc(C(F)(F)F)c1 [Compound 43],0.5
5,CC(=O)c1cccc(S(=O)(=O)N[C@@H]2CCN(Cc3ccc(OC(C)C)cc3)C2)c1 [Compound 49],2

# Test system: Staphylococcus aureus subsp. aureus
# Experiment: MIC, 20-strain panel
# Format: cell-based
# Settings: H: Staphylococcus aureus subsp. aureus, read-out: MIC
# Outline: as §1
row,SMILES,MIC [µg/mL]
1,O=S(=O)(N[C@@H]1CCN(Cc2ccc(SC(F)(F)F)cc2)C1)c1cccc(OC(F)(F)F)c1 [Compound 55],> 8
2,N#Cc1cc(S(=O)(=O)N[C@@H]2CCN(Cc3ccc(-c4ccccc4)cc3)C2)ccc1F [Compound 19],> 8
3,N#Cc1cccc(S(=O)(=O)N[C@@H]2CCN(Cc3ccc(-c4ccccn4)cc3)C2)c1 [Compound 46],> 8
4,O=S(=O)(N[C@@H]1CCN(Cc2ccc(-c3ccccn3)cc2)C1)c1cccc(C(F)(F)F)c1 [Compound 43],> 8
5,CC(=O)c1cccc(S(=O)(=O)N[C@@H]2CCN(Cc3ccc(OC(C)C)cc3)C2)c1 [Compound 49],> 8

# Test system: Streptococcus agalactiae
# Experiment: MIC, 20-strain panel
# Format: cell-based
# Settings: not given
# Outline: as §1
row,SMILES,MIC [µg/mL]
1,O=S(=O)(N[C@@H]1CCN(Cc2ccc(SC(F)(F)F)cc2)C1)c1cccc(OC(F)(F)F)c1 [Compound 55],> 8
2,N#Cc1cc(S(=O)(=O)N[C@@H]2CCN(Cc3ccc(-c4ccccc4)cc3)C2)ccc1F [Compound 19],> 8
3,N#Cc1cccc(S(=O)(=O)N[C@@H]2CCN(Cc3ccc(-c4ccccn4)cc3)C2)c1 [Compound 46],> 8
4,O=S(=O)(N[C@@H]1CCN(Cc2ccc(-c3ccccn3)cc2)C1)c1cccc(C(F)(F)F)c1 [Compound 43],> 8
5,CC(=O)c1cccc(S(=O)(=O)N[C@@H]2CCN(Cc3ccc(OC(C)C)cc3)C2)c1 [Compound 49],> 8

# Test system: Staphylococcus saprophyticus subsp. saprophyticus
# Experiment: MIC, 20-strain panel
# Format: cell-based
# Settings: not given
# Outline: as §1
row,SMILES,MIC [µg/mL]
1,O=S(=O)(N[C@@H]1CCN(Cc2ccc(SC(F)(F)F)cc2)C1)c1cccc(OC(F)(F)F)c1 [Compound 55],> 8
2,N#Cc1cc(S(=O)(=O)N[C@@H]2CCN(Cc3ccc(-c4ccccc4)cc3)C2)ccc1F [Compound 19],> 8
3,N#Cc1cccc(S(=O)(=O)N[C@@H]2CCN(Cc3ccc(-c4ccccn4)cc3)C2)c1 [Compound 46],> 8
4,O=S(=O)(N[C@@H]1CCN(Cc2ccc(-c3ccccn3)cc2)C1)c1cccc(C(F)(F)F)c1 [Compound 43],> 8
5,CC(=O)c1cccc(S(=O)(=O)N[C@@H]2CCN(Cc3ccc(OC(C)C)cc3)C2)c1 [Compound 49],> 8

# Test system: Shigella flexneri
# Experiment: MIC, 20-strain panel
# Format: cell-based
# Settings: G: Shigella flexneri
# Outline: as §1
row,SMILES,MIC [µg/mL]
1,O=S(=O)(N[C@@H]1CCN(Cc2ccc(SC(F)(F)F)cc2)C1)c1cccc(OC(F)(F)F)c1 [Compound 55],> 8
2,N#Cc1cc(S(=O)(=O)N[C@@H]2CCN(Cc3ccc(-c4ccccc4)cc3)C2)ccc1F [Compound 19],> 8
3,N#Cc1cccc(S(=O)(=O)N[C@@H]2CCN(Cc3ccc(-c4ccccn4)cc3)C2)c1 [Compound 46],> 8
4,O=S(=O)(N[C@@H]1CCN(Cc2ccc(-c3ccccn3)cc2)C1)c1cccc(C(F)(F)F)c1 [Compound 43],> 8
5,CC(=O)c1cccc(S(=O)(=O)N[C@@H]2CCN(Cc3ccc(OC(C)C)cc3)C2)c1 [Compound 49],> 8

# Test system: E. coli MG1655
# Experiment: MIC, 20-strain panel
# Format: cell-based
# Settings: Escherichia coli, MG1655, A: E. coli MG1655; read-out: MIC
# Outline: as §1
row,SMILES,MIC [µg/mL]
1,O=S(=O)(N[C@@H]1CCN(Cc2ccc(SC(F)(F)F)cc2)C1)c1cccc(OC(F)(F)F)c1 [Compound 55],> 8
2,N#Cc1cc(S(=O)(=O)N[C@@H]2CCN(Cc3ccc(-c4ccccc4)cc3)C2)ccc1F [Compound 19],> 8
3,N#Cc1cccc(S(=O)(=O)N[C@@H]2CCN(Cc3ccc(-c4ccccn4)cc3)C2)c1 [Compound 46],> 8
4,O=S(=O)(N[C@@H]1CCN(Cc2ccc(-c3ccccn3)cc2)C1)c1cccc(C(F)(F)F)c1 [Compound 43],> 8
5,CC(=O)c1cccc(S(=O)(=O)N[C@@H]2CCN(Cc3ccc(OC(C)C)cc3)C2)c1 [Compound 49],> 8
